The nature of this series: molar enthalpy of vaporization or sublimation. Conditions: Crystal, Static calorimetry.

Numbers after ± are expanded uncertainties.

The results in this text go back to the NIST ThermoML archive (doi:10.1016/j.tca.2006.11.008).

Turning to `NC(=O)N1CCCCC1` [1-piperidinecarboxamide], the molar enthalpy (386 K) was 23.9 ± 0.311 kcal/mol. On the same count and under the same terms, as for `NC(=O)C1CCCNC1` (stereo not drawn) [3-piperidinecarboxamide], the figure is 26.9 ± 0.311 kcal/mol. On to `NC(=O)C1CCNCC1` [4-piperidinecarboxamide], for which the molar enthalpy (426.8 K) is 29.5 ± 0.311 kcal/mol.
